The test system of this experiment is Vaccinia virus. Briefly: Minimum inhibitory concentration required to reduce virus induced cytopathogenicity by 50% against vaccinia virus in rabbit primary kidney cell cultures. Type of experiment: functional. Particulars: Orthopoxvirus vaccinia.
The compound `Cl.Cn1cc(NC(=O)c2cc(NC(=O)CCl)cn2C)cc1C(=O)NCCC(=N)N` yielded an MIC of 10 µg/mL.

Regarding `Cl.Cn1cc(NC(=O)c2cc(NC(=O)CF)cn2C)cc1C(=O)NCCC(=N)N`, the MIC came out at 7 µg/mL.

On to `Cl.Cn1cc(NC(=O)c2cc(NC(=O)CCCCl)cn2C)cc1C(=O)NCCC(=N)N`, for which the MIC came out at 20 µg/mL.

For `Cl.Cl.Cn1cc(NC(=O)c2cc(NC(=O)CNC(=N)N)cn2C)cc1C(=O)NCCC(=N)N` [CONGOCIDINE], the MIC is 2 µg/mL.

In turn, `Cl.Cl.Cn1cc(NC(=O)c2cc(NC(=O)c3cc(NC=O)cn3C)cn2C)cc1C(=O)NCCC(=N)N` displayed an MIC of 0.2 µg/mL.

As to `Cl.Cn1cc(NC(=O)c2cc(NC(=O)C(Cl)(Cl)Cl)cn2C)cc1C(=O)NCCC(=N)N`, the MIC was above 100 µg/mL.

With `CC[N+](CC)(CC)CC.Cn1cc(NC(=O)c2cc(NC(=O)C(Cl)Cl)cn2C)cc1C(=O)NCCC(=N)N.O=S(=O)([O-])O`, the MIC amounted to 20 µg/mL.

Regarding `Cl.Cn1cc(NC(=O)c2cc(NC(=O)C3CC3)cn2C)cc1C(=O)NCCC(=N)N`, the MIC was above 100 µg/mL.

These data come from ChEMBL document CHEMBL1124029, “Novel DNA groove binding alkylators: design, synthesis, and biological evaluation” (1988).
